The record followed here is patent US20050096564A1, “Method of distributing skin care products” (priority 2001, published 2005).

Structures are written as SMILES.

For data set [1] the following is noted: in vivo.
Source text: The studies included non-smoking, female subjects of good health over the age of 35 years and under the age 55 years with skin type of III or less by the Fitzpatrick Skin classification. […] Acceptable subjects were chronologically enrolled in the study following a randomization code describing what treatment would be applied to which dorsal forearm. […] The subject applied a blinded emulsion designated by a letter to one dorsal forearm and an alternative emulsion with a different designation to the opposite arm, twice per day, for three weeks. […] ISF was extracted from the dorsal forearm, volar upper arm, and serum at one week (“Week 2”) and three weeks after dosing (“Week 4”) and two weeks after the cessation of dosing (“Week 6”).
ISF was extracted from both the treatment site (dorsal forearm) as well as an adjacent, untreated site volar upper arm) following one week of therapy and three weeks of therapy. Subjects ended treatment at this point and returned for a final extraction two weeks later.
The ISF collection period lasted between three and six hours, typically four hours.
Data set [2] can be described thus: Study 2: vitamin C concentration in ISF and serum of subjects taking oral vitamin supplements. The note with it: Study 2, Supplement Yes. The class given is in vivo, human. An excerpt: The laser made four pores at each collection site.

On to `O=C1O[C@H]([C@@H](O)CO)C(O)=C1O` [Vitamin C, vitamin C], for which the “Influence of topical application on levels at an adjacent, untreated site or the serum” value in data set [1] is “does not influence”. The “Response of serum level to topical therapy” value in data set [1] was “did not respond”. Moreover, the “Vitamin C concentration, MEAN” value in data set [2] (Serum) was found to be 1.36; in data set [2] (Sun-exposed site ISF), 1.00; in data set [2] (Sun-protected site ISF), 1.00.
